Literature values as cited in patent US7893091B2, “Combination therapy for the treatment of urinary frequency, urinary urgency and urinary incontinence” (Merck Sharp & Dohme Corp., priority 2005, dated 2011).

How the values were obtained:
[1] = test system: rats
[2] = test system: C-fibers; conditions: instilled directly into the bladder
[3] = test system: C-fibers; conditions: more potent than capsaicin
[4] = test system: decerebrate cats
[5] = test system: guinea pig
[6] = test system: isolated bladder strips; conditions: tissue bath
[7] = test system: rats; remark: listed apart in the source

C[C@H](Cc1ccc2c(c1)OC(C(=O)[O-])(C(=O)[O-])O2)NC[C@H](O)c1cccc(Cl)c1.[Na+].[Na+] [CL316243]
voiding interval in the hyperreflexia paradigms ([1]; administered intravenously): dose-dependently normalizes voiding interval
spontaneous bladder contractions in the detrusor instability paradigm ([1]; administered orally): dose-dependent inhibition
bladder pressure ([1]; intravenous administration): reduces bladder pressure
bladder capacity in cystomeric studies ([1]; intravenous administration, prolongation of micturition interval without increasing residual urine volume): increases bladder capacity

COc1cc(CNC(=O)CCCC/C=C/C(C)C)ccc1O [Capsaicin]
beneficial effects (i.e. increased bladder capacity), share of patients [2]: ~70 % of patients

C=C(C)[C@]12C[C@@H](C)[C@@]34O[C@](Cc5ccccc5)(O[C@@H]1[C@@H]3C=C(COC(=O)Cc1ccc(O)c(OC)c1)C[C@]1(O)C(=O)C(C)=C[C@@H]41)O2 [Resinferatoxin]
potency relative to capsaicin [3]: ~100 fold

Cc1ccc(-c2c3n(c(=O)c4ncccc24)CC[C@@H](C)CN(Cc2cc(C(F)(F)F)cc(C(F)(F)F)c2)C3=O)cc1 [TAK-637]
micturition reflex induced by electrical stimulation of the rostral brainstem near the locus coeruleus ([4]; 3 mg/kg i.v.): did not inhibit
voiding efficiency ([4]; decerebrate cats, 0.1, 0.3, 1 and 3 mg/kg i.v.): without any significant reduction
increase in bladder capacity (maximal increase) ([4]; decerebrate cats, 0.1, 0.3, 1 and 3 mg/kg i.v., dose-dependent): 94%
micturition reflex induced by topical application of capsaicin onto the surface of the bladder dome [5]: inhibited
distension-induced rhythmic bladder contractions ([5]; systemic administration): decreased the number but not the amplitude
carbachol or electrical field stimulation induced contractions of isolated bladder strips [6]: had no effect

COc1ccccc1CC(=N)N1C[C@@H]2C(=O)CCC(c3ccccc3)(c3ccccc3)[C@@H]2C1 [RP 67580]
volume threshold in cyclophosphamide-induced model of bladder overactivity ([7]; rats, i.t. versus i.v. administration): increased the volume threshold after i.t., but not i.v. administration

CC(=O)NC1(c2ccccc2)CCN(CC[C@H](CN(C)C(=O)c2ccccc2)c2ccc(Cl)c(Cl)c2)CC1 [SR 48968]
response in cyclophosphamide-induced model of bladder overactivity ([7]; 10 nmol/rat): moderate response
